ChEMBL document CHEMBL2074336, “Reversal of P-glycoprotein-associated multidrug resistance by ivermectin” (Biochem Pharmacol, 1997)
One block for each molecule: values may come before it.

How the values were obtained:
Assay type in all cases: functional, cell membranes, Plasma membrane
Details in all cases: cem-vlb
[1] = biological target: T1, ATP-dependent translocase ABCB1 (Homo sapiens, UniProt P08183); test: TP_TRANSPORTER: inhibition of IAAP photoaffinity labelling (IAAP: 0.02 uM, PSC-833: 100-fold molar excess) in plasma membranes from CEM/VLB1.0 cells
[2] = biological target: T1, ATP-dependent translocase ABCB1; test: TP_TRANSPORTER: inhibition of Ivermectin binding (IVM: 0.2 uM, Vinblastine: 300-fold molar excess) in plasma membranes from CEM/VLB1.0 cells; set-up: scale not given: the % may be the effect or the level left
[3] = biological target: T1, ATP-dependent translocase ABCB1; test: TP_TRANSPORTER: inhibition of Vinblastine binding (Vinblastine: 0.2 uM, IVM: 300-fold molar excess) in plasma membranes from CEM/VLB1.0 cells; set-up: scale not given: the % may be the effect or the level left
[4] = biological target: T1, ATP-dependent translocase ABCB1; test: TP_TRANSPORTER: inhibition of IAAP photoaffinity labelling (IAAP: 0.02 uM, IVM: 100-fold molar excess) in plasma membranes from CEM/VLB1.0 cells; set-up: scale not given: the % may be the effect or the level left

T1 sequence (P08183 whole entry): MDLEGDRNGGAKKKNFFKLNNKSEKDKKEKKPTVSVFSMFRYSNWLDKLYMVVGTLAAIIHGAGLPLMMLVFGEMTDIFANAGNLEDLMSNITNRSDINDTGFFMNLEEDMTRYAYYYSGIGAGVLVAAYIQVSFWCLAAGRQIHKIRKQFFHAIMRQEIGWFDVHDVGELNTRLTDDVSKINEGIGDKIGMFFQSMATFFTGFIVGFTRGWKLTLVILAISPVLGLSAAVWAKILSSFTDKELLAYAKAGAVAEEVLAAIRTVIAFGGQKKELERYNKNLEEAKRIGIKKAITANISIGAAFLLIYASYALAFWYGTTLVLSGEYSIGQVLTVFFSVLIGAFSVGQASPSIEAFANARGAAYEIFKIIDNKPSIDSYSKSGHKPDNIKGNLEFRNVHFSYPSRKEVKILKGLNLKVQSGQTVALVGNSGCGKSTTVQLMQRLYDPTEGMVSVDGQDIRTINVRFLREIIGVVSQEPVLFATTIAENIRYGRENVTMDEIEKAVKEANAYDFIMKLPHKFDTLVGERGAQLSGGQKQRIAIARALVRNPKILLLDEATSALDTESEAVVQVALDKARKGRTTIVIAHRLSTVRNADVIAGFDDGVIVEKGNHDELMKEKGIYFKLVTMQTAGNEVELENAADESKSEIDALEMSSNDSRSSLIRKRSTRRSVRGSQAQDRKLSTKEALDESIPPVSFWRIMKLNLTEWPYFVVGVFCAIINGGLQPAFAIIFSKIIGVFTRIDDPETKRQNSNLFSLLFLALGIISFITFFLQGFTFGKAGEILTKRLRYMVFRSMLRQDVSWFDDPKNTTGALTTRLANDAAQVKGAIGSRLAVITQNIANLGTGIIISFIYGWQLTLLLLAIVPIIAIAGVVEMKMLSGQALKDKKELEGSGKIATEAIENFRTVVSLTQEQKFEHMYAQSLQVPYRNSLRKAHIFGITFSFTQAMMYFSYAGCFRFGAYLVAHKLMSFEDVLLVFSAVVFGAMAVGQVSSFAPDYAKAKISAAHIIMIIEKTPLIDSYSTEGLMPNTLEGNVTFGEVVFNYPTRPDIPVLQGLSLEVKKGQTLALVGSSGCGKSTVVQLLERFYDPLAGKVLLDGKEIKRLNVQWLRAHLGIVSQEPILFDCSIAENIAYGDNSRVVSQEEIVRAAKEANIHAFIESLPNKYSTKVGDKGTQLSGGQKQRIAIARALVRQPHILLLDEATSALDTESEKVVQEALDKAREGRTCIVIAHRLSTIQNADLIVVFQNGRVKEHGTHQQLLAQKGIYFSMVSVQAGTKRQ

- Activity [1]: inhibitor [+]
Molecule: C/C=C/C[C@@H](C)C(=O)[C@H]1C(=O)N[C@@H](C(C)C)C(=O)N(C)CC(=O)N(C)[C@@H](CC(C)C)C(=O)N[C@@H](C(C)C)C(=O)N(C)[C@@H](CC(C)C)C(=O)N[C@@H](C)C(=O)N[C@H](C)C(=O)N(C)[C@@H](CC(C)C)C(=O)N(C)[C@@H](CC(C)C)C(=O)N(C)[C@@H](C(C)C)C(=O)N1C [VALSPODAR]

- Activity [2]: 44%
Molecule: CC[C@]1(O)C[C@@H]2CN(CCc3c([nH]c4ccccc34)[C@@](C(=O)OC)(c3cc4c(cc3OC)N(C)[C@H]3[C@@](O)(C(=O)OC)[C@H](OC(C)=O)[C@]5(CC)C=CCN6CC[C@]43[C@@H]65)C2)C1 [VINBLASTINE]

- Activity [3]: 0%
- Activity [4]: 0%
Molecule: IVERMECTIN
